According to the supplement of paper PMC11451515:

System: SEM cells
Test: cell viability relative to DMSO control; higher = less cytotoxic
Conditions: 48 h
Method in brief: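 Viability, reported as a per-plate percentage of DMSO wells with cell-free wells as background, came from CellTiter-Glo One luminescence. Reading took place after 48 h at 37°C. Before that, NOMO1 or SEM (500 cells/well) or P12-Ichikawa (1000 cells/well) leukemia cells, adapted for at least four passages in each medium, were seeded in 1536-well plates (5 μl) and pin-dosed with library compounds in DMSO, 47 μM to 0.79 nM over 11 threefold points.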

[1] = HPLM + 10% dialyzed FBS, 0.000781 µM
[2] = HPLM + 10% dialyzed FBS, 0.00234 µM
[3] = HPLM + 10% dialyzed FBS, 0.00702 µM
[4] = HPLM + 10% dialyzed FBS, 0.0211 µM
[5] = HPLM + 10% dialyzed FBS, 0.0632 µM
[6] = HPLM + 10% dialyzed FBS, 0.19 µM
[7] = HPLM + 10% dialyzed FBS, 0.569 µM
[8] = HPLM + 10% dialyzed FBS, 1.71 µM
[9] = HPLM + 10% dialyzed FBS, 5.12 µM
[10] = HPLM + 10% dialyzed FBS, 15.4 µM
[11] = HPLM + 10% dialyzed FBS, 46.1 µM
[12] = RPMI 5 mM glucose + 10% FBS, 0.000781 µM
[13] = RPMI 5 mM glucose + 10% FBS, 0.00234 µM
[14] = RPMI 5 mM glucose + 10% FBS, 0.00702 µM
[15] = RPMI 5 mM glucose + 10% FBS, 0.0211 µM
[16] = RPMI 5 mM glucose + 10% FBS, 0.0632 µM
[17] = RPMI 5 mM glucose + 10% FBS, 0.19 µM
[18] = RPMI 5 mM glucose + 10% FBS, 0.569 µM
[19] = RPMI 5 mM glucose + 10% FBS, 1.71 µM
[20] = RPMI 5 mM glucose + 10% FBS, 5.12 µM
[21] = RPMI 5 mM glucose + 10% FBS, 15.4 µM
[22] = RPMI 5 mM glucose + 10% FBS, 46.1 µM
[23] = RPMI 5 mM glucose + 10% dialyzed FBS, 0.000781 µM
[24] = RPMI 5 mM glucose + 10% dialyzed FBS, 0.00234 µM
[25] = RPMI 5 mM glucose + 10% dialyzed FBS, 0.00702 µM
[26] = RPMI 5 mM glucose + 10% dialyzed FBS, 0.0211 µM
[27] = RPMI 5 mM glucose + 10% dialyzed FBS, 0.0632 µM
[28] = RPMI 5 mM glucose + 10% dialyzed FBS, 0.19 µM
[29] = RPMI 5 mM glucose + 10% dialyzed FBS, 0.569 µM
[30] = RPMI 5 mM glucose + 10% dialyzed FBS, 1.71 µM
[31] = RPMI 5 mM glucose + 10% dialyzed FBS, 5.12 µM
[32] = RPMI 5 mM glucose + 10% dialyzed FBS, 15.4 µM
[33] = RPMI 5 mM glucose + 10% dialyzed FBS, 46.1 µM

| Compound | cell viability [1] [%] | cell viability [2] [%] | cell viability [3] [%] | cell viability [4] [%] | cell viability [5] [%] | cell viability [6] [%] | cell viability [7] [%] | cell viability [8] [%] | cell viability [9] [%] | cell viability [10] [%] | cell viability [11] [%] | cell viability [12] [%] | cell viability [13] [%] | cell viability [14] [%] | cell viability [15] [%] | cell viability [16] [%] | cell viability [17] [%] | cell viability [18] [%] | cell viability [19] [%] | cell viability [20] [%] | cell viability [21] [%] | cell viability [22] [%] | cell viability [23] [%] | cell viability [24] [%] | cell viability [25] [%] | cell viability [26] [%] | cell viability [27] [%] | cell viability [28] [%] | cell viability [29] [%] | cell viability [30] [%] | cell viability [31] [%] | cell viability [32] [%] | cell viability [33] [%] |
| --- | --- | --- | --- | --- | --- | --- | --- | --- | --- | --- | --- | --- | --- | --- | --- | --- | --- | --- | --- | --- | --- | --- | --- | --- | --- | --- | --- | --- | --- | --- | --- | --- | --- |
| COc1ccc(C(=O)CC(=O)c2ccc(C(C)(C)C)cc2)cc1 | 70.8 | 73.2 | 75.9 | 66.4 | 69.1 | 78.2 | 75.8 | 76.1 | 80.8 | 93.5 | 68.3 | 100 | 94.4 | 101 | 93 | 99 | 88 | 98.5 | 95.1 | 110 | 106 | 89.9 | 91.7 | 96.1 | 101 | 105 | 100 | 104 | 117 | 92 | 111 | 90.8 | 115 |
| C=C[C@H]1CN2CCC1C[C@@H]2[C@@H](O)c1ccnc2ccccc12 (some centres not stated) | 95.4 | 95.7 | 103 | 112 | 98.5 | 96.1 | 91 | 93.6 | 85.2 | 89.1 | 72.1 | 92 | 105 | 93.2 | 106 | 108 | 104 | 100 | 92.9 | 73.5 | 78.1 | 51.1 | 106 | 100 | 90 | 106 | 102 | 103 | 110 | 94.1 | 87.3 | 86.6 | 64.1 |
| CC1=CC=C2\N=C/3N(CC[C@@]3(O)C(=O)C2=C1)C4=CC=CC=C4 | 89.5 | 88.6 | 97.7 | 87.3 | 94.5 | 93 | 96.6 | 95 | 70.5 | 85.8 | 93 | 119 | 120 | 98.3 | 120 | 108 | 121 | 97 | 94.9 | 92.4 | 117 | 107 | 86.8 | 83.2 | 85.6 | 95.7 | 92.6 | 76.6 | 101 | 78.3 | 70.8 | 87.2 | 94.5 |
| CC(Cc1ccc(O)c(O)c1)(NN)C(=O)O (configuration not stated) | 103 | 121 | 130 | 125 | 122 | 131 | 105 | 112 | 108 | 119 | 79.9 | 117 | 130 | 122 | 127 | 126 | 119 | 99 | 121 | 110 | 113 | 76.1 | – | – | – | – | – | – | – | – | – | – | – |
| OC1=CC2=C(C(=O)\C=C(/O2)C3=CC=CC=C3)C(=C1O)O | 105 | 116 | 106 | 103 | 111 | 109 | 104 | 93.3 | 77.5 | 25.6 | 23.8 | – | – | – | – | – | – | – | – | – | – | – | 108 | 94.4 | 102 | 94.5 | 104 | 99.5 | 106 | 102 | 69.5 | 16.7 | 14.6 |
| Cc1cc(-c2nnc3n2CCCCC3)c(C)n1-c1ccccc1 | 110 | 116 | 115 | 123 | 117 | 118 | 120 | 119 | 98.7 | 117 | 115 | 53.2 | 124 | 103 | 107 | 95.6 | 107 | 124 | 126 | 109 | 115 | 102 | 113 | 114 | 140 | 131 | 95.3 | 127 | 136 | 135 | 114 | 126 | 107 |
| CCc1cccc2c3c([nH]c12)C(CC)(CC(=O)O)OCC3 (configuration not stated) | 105 | 90.9 | 105 | 112 | 101 | 120 | 114 | 108 | 103 | 47.2 | 103 | 83.6 | 37.6 | 85.4 | 96.2 | 98 | 87.6 | 105 | 102 | 105 | 40.7 | 91.9 | 94.2 | 93 | 102 | 107 | 112 | 103 | 102 | 110 | 105 | 34.7 | 89.4 |
| Cn1cnc(-c2cc3nccc(Oc4ccc(NC(=S)NC(=O)Cc5ccccc5)cc4F)c3s2)c1 | 53.6 | 82.3 | 67.1 | 57.5 | 46 | 46.9 | 43.9 | 30.5 | 31.2 | 32.4 | 12.8 | 82.5 | 94.7 | 85.6 | 68.4 | 53.7 | 66.1 | 46.2 | 38.2 | 30.5 | 24.8 | 2.88 | 68.9 | 63.1 | 70 | 43.8 | 35.3 | 36 | 35.3 | 25.4 | 24.7 | 20.1 | 4.88 |
| O=C(c1ccc(/C=C/c2n[nH]c3ccccc23)cc1)N1CCNCC1 | 82.7 | 77.8 | 83.4 | 79 | 60.7 | 53.2 | 48.1 | 16.3 | 20 | 19.3 | 19.8 | 109 | 120 | 106 | 85.3 | 82.7 | 56.2 | 62.1 | 10.9 | 11.7 | 12.3 | 13.3 | 75.8 | 78.2 | 73.1 | 80.2 | 66.3 | 51.9 | 38.2 | 15.9 | 15.9 | 14.6 | 13.3 |
| CC[C@H](NC(C)C)[C@H](O)c1ccc(O)c2[nH]c(=O)ccc12 | 75.6 | 90.5 | 101 | 92.8 | 89.3 | 100 | 94.6 | 98.1 | 98.5 | 98.8 | 68.4 | 89.2 | 112 | 96.9 | 107 | 109 | 98.1 | 108 | 100 | 104 | 106 | 79.3 | 100 | 87.5 | 98 | 109 | 119 | 109 | 125 | 105 | 113 | 98.9 | 85.5 |
| CCC[C@@H](C=O)NC(=O)[C@H](CC(C)C)NC(=O)[C@H](CC(C)C)NC(=O)OCc1ccccc1 | 107 | 111 | 106 | 121 | 124 | 117 | 132 | 92.7 | 8.49 | 8.38 | 6.36 | 105 | 103 | 125 | 111 | 129 | 130 | 55.3 | 8.42 | 8.05 | 8.14 | 6.25 | 97.6 | 101 | 120 | 116 | 134 | 119 | 118 | 45.7 | 9.18 | 8.63 | 6.53 |
| CC(C)C(=O)Nc1ncc(-c2cc(C(F)F)nn2-c2c(Cl)cccc2Cl)s1 | 109 | 117 | 120 | 121 | 130 | 121 | 133 | 146 | 124 | 114 | 48.7 | – | – | – | – | – | – | – | – | – | – | – | 102 | 114 | 140 | 130 | 124 | 132 | 138 | 142 | 134 | 126 | 57.5 |
| COc1ccc(CC2c3cc(OC)c(OC)cc3CC[N+]2(C)CCC(=O)OCCCCCOC(=O)CC[N+]2(C)CCc3cc(OC)c(OC)cc3C2Cc2ccc(OC)c(OC)c2)cc1OC (configuration not stated) | 81.2 | 80.8 | 92.9 | 98.4 | 80.3 | 94 | 103 | 101 | 97.1 | 22.6 | 88 | 81 | 77.6 | 94 | 78.5 | 81.1 | 99.2 | 91.2 | 102 | 92.1 | 13.2 | 85.1 | 75 | 73.3 | 93.8 | 96 | 79.9 | 93.8 | 104 | 103 | 91.1 | 22.1 | 80.2 |
| NCCCCCC(=O)O | 87.3 | 17 | 101 | 42.8 | 108 | 119 | 111 | 119 | 116 | 107 | 115 | 91.7 | 115 | 104 | 36.5 | 103 | 102 | 111 | 104 | 96.4 | 98 | 97.4 | 35.6 | 9.07 | 101 | 39.5 | 100 | 99.9 | 101 | 100 | 94.3 | 98 | 103 |
| CCc1c(O)cc(O)c(C(=O)c2ccc(OCCN3CCOCC3)c(OC)c2)c1CC(=O)N(CCOC)CCOC | 115 | 124 | 118 | 120 | 116 | 116 | 111 | 103 | 47.3 | 25.5 | 17 | 122 | 116 | 153 | 121 | 143 | 117 | 81.9 | 91.3 | 40.8 | 20.8 | 19 | 115 | 103 | 111 | 106 | 108 | 105 | 86.5 | 68.1 | 32.9 | 24.1 | 15 |
